Results: the NIST ThermoML archive (doi:10.1021/je200710t)

Key:
[1] = for mass density / viscosity: 101.33 kPa, Liquid; for Glass transition temperature: DTA
[2] = refractive index (Na D-line) (dimensionless); details: 101.33 kPa, Liquid, Standard Abbe refractometry

N#CCCn1cc[n+](Cc2ccccc2)c1.[Cl-] [1-(2-cyanoethyl)-3-(phenylmethyl)-1H-imidazolium chloride]
[1]
Details	mass density [kg/m3]	viscosity [mPa·s]
298.15 K	1202.67	–
303.15 K	1200.28	–
308.15 K	1197.33	–
313.15 K	1194.37	–
318.15 K	1191.42	–
323.15 K	1188.5	95152
328.15 K	1185.59	42665
333.15 K	1182.69	20463
338.15 K	1179.8	10434
343.15 K	1176.88	5635
348.15 K	1174.01	3190
353.15 K	1171.16	1958

Details	Glass transition temperature [°C]
[1]	16.21

N#CCCn1cc[n+](CCO)c1.[Cl-] [1-(2-cyanoethyl)-3-(2-hydroxyethyl)-1H-imidazolium chloride]
Details	mass density, [1] [kg/m3]	refractive index, [2]	viscosity, [1] [mPa·s]
293.15 K	1257.9	1.54996	–
298.15 K	1255.05	1.54847	–
303.15 K	1252.2	1.54699	62813
308.15 K	1249.38	1.54554	33772
313.15 K	1246.58	1.54412	19046
318.15 K	1243.81	1.54277	11119
323.15 K	1241.05	1.54133	6721
328.15 K	1238.32	1.53985	4213
333.15 K	1235.59	1.53847	2708
338.15 K	1232.86	–	1817
343.15 K	1230.13	–	1245
348.15 K	1227.41	–	873
353.15 K	1224.57	–	632

Details	Glass transition temperature [°C]
[1]	14.50

CCCC[n+]1ccn(CCC#N)c1.[Cl-] [3-butyl-1-(2-cyanoethyl)-1H-imidazol-3-ium chloride]
Details	mass density, [1] [kg/m3]	refractive index, [2]	viscosity, [1] [mPa·s]
293.15 K	1132.55	1.52575	4707
298.15 K	1129.35	1.5243	2637
303.15 K	1126.15	1.52287	1612
308.15 K	1122.93	1.52139	1020
313.15 K	1119.66	1.51992	668
318.15 K	1116.49	1.51846	451
323.15 K	1113.34	1.51707	314
328.15 K	1110.18	1.5156	224
333.15 K	1107.03	1.51418	164
338.15 K	1103.87	–	123
343.15 K	1100.72	–	94
348.15 K	1097.57	–	73
353.15 K	1094.44	–	58

Details	Glass transition temperature [°C]
[1]	-5.23

C=CC[n+]1ccn(CCC#N)c1.[Cl-] [3-allyl-1-(2-cyanoethyl)-1H-imidazolium chloride]
Details	mass density, [1] [kg/m3]	refractive index, [2]	viscosity, [1] [mPa·s]
293.15 K	1173.79	1.54731	–
298.15 K	1170.79	1.54603	17544
303.15 K	1167.79	1.54478	10294
308.15 K	1164.8	1.54339	5761
313.15 K	1161.84	1.54208	3316
318.15 K	1158.88	1.54072	2046
323.15 K	1155.93	1.53945	1314
328.15 K	1152.91	1.53813	873
333.15 K	1150.01	1.53682	599
338.15 K	1147.11	–	423
343.15 K	1144.22	–	306
348.15 K	1141.32	–	226
353.15 K	1138.42	–	171

Details	Glass transition temperature [°C]
[1]	-1.48
